These molecules were tested against PIK3CG (human) (UniProt P48736) (assay: Assessment of PIK3CG Kinase Activity).
Sequence of PIK3CG (human) (P48736 whole entry, looked up): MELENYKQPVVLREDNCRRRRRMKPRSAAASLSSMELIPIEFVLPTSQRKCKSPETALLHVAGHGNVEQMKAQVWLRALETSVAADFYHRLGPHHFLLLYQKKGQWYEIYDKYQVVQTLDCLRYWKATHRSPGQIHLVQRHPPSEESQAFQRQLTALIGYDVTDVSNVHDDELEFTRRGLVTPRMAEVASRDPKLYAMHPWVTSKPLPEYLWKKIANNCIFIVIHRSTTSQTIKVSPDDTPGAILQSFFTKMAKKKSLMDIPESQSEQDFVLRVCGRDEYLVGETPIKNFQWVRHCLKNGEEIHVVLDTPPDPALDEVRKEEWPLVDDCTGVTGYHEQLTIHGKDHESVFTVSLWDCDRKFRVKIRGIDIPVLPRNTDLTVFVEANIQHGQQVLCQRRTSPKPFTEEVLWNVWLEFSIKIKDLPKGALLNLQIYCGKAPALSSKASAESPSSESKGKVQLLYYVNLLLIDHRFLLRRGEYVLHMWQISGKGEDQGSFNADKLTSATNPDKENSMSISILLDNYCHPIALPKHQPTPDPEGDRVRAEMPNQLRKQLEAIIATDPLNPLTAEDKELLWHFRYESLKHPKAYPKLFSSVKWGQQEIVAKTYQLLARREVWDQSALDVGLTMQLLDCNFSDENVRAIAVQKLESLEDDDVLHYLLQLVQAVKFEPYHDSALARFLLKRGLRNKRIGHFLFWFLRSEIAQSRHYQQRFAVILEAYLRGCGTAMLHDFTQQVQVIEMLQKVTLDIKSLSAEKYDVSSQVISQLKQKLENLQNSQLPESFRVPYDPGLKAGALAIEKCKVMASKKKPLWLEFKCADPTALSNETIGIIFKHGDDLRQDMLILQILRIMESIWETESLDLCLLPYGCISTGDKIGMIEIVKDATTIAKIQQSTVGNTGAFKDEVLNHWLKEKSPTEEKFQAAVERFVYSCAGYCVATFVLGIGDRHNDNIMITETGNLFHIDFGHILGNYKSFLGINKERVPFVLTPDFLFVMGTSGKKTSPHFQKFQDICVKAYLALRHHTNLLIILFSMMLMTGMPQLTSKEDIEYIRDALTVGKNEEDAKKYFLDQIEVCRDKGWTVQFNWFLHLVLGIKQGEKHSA

Structure (SMILES)	Ki [nM]
Cc1nc(NC(=O)NCCOc2ccccc2)sc1C#Cc1ccncc1	< 50
CC(=O)Nc1ccc(C#Cc2sc(NC(=O)NCCOCC3CC3)nc2C)cn1	50 to 250
Cc1nc(NC(=O)NCCc2cccnc2)sc1C#Cc1ccncc1	< 50
Cc1nc(NC(=O)N2CCC(OCc3ccccc3)C2)sc1C#Cc1ccncc1 (stereo unspecified)	50 to 250
Cc1nc(NC(=O)NCC#N)sc1C#Cc1ccncc1	< 50
Cc1nc(NC(=O)NCc2ccccn2)sc1C#Cc1ccncc1	< 50
Cc1nc(NC(=O)NCCOCCN2CCOCC2)sc1C#Cc1ccncc1	50 to 250
COc1cc(C#Cc2sc(NC(=O)NCCOCC3CC3)nc2C)cc(OC)c1	50 to 250
Cc1ccc(OCCNC(=O)Nc2nc(C)c(C#Cc3ccncc3)s2)cc1	< 50
COc1cc(C#Cc2sc(NC(=O)NC[C@H](C)OCC3CC3)nc2C)cnc1OC	< 50
Cc1nc(NC(=O)NCCOCC2CC2)sc1C#Cc1ccnc2ccccc12	< 50
Cc1nc(NC(=O)NC[C@H](C)OCC2CC2)sc1C#Cc1cncc(F)c1	< 50
Cc1nc(NC(=O)NCCc2ncn(CC(F)F)c2Cl)sc1C#Cc1ccncc1	< 50
Cc1nc(NC(=O)NCCOCC2CC2)sc1C#Cc1ccnn1C	50 to 250
Cc1nc(NC(=O)NCCC(=O)N(C)CC(F)(F)F)sc1C#Cc1ccccc1	50 to 250
CCOC(=O)N1CCC(OC(=O)Nc2nc(C)c(C#Cc3ccncc3)s2)CC1	50 to 250
Cc1nc(NC(=O)NCC[S+](C)[O-])sc1C#Cc1ccncc1 (stereo unspecified)	< 50
COc1cncc(C#Cc2sc(NC(=O)NC[C@H](C)OCC3CC3)nc2C)c1	< 50
CCc1ccc(CCNC(=O)Nc2nc(C)c(C#Cc3ccncc3)s2)nc1	< 50
COc1cccc(C#Cc2sc(NC(C)=O)nc2C)c1	50 to 250
Cc1nc(NC(=O)NCCc2ccncc2)sc1C#Cc1ccncc1	50 to 250
Cc1nc(NC(=O)NCCOCC2CC2)sc1C#Cc1cncn1C	50 to 250

Structure (SMILES)	Ki [nM]
Cc1nc(NC(=O)NCCC#N)sc1C#Cc1ccncc1	< 50
Cc1nc(NC(=O)[C@@H]2CCC(=O)N2)sc1C#Cc1ccncc1	50 to 250
Cc1nc(NC(=O)NCCOCC2CC2)sc1C#Cc1ccncc1F	< 50
CC(=O)Nc1nc(C)c(C#Cc2sc(NC(=O)NCCOCC3CC3)nc2C)s1	50 to 250
Cc1nc(NC(=O)NCCOCC2CCCC2)sc1C#Cc1ccncc1	< 50
Cc1nc(NC(=O)NCCc2cn(CC(F)(F)F)cn2)sc1C#Cc1ccccc1	< 50
CCOCCNC(=O)Nc1nc(C)c(C#Cc2ccccc2)s1	< 50
CC(=O)Nc1nc(C)c(C#Cc2ccc(Cl)nc2)s1	50 to 250
Cc1nc(NC(=O)CCCC(=O)NCC(F)F)sc1C#Cc1ccncc1	50 to 250
COc1cccc(C#Cc2sc(NC(=O)NCCOCC3CC3)nc2C)c1	50 to 250
CCCOCCOC(=O)Nc1nc(C)c(C#Cc2ccncc2)s1	< 50
Cc1nc(NC(=O)NCCOCC2CC2)sc1C#Cc1ccn(C)c(=O)c1	50 to 250
CCCO[C@@H](C)CNC(=O)Nc1nc(C)c(C#Cc2ccncc2)s1	< 50
Cc1nc(NC(=O)NCCOc2cccc(F)c2)sc1C#Cc1ccncc1	< 50
CC(=O)Nc1nc(C)c(C#Cc2cncn2C)s1	50 to 250
COc1cncc(C#Cc2sc(NC(=O)NC[C@H](C)O)nc2C)c1	< 50
Cc1nc(NC(=O)NCCC2CCCCO2)sc1C#Cc1ccncc1 (stereo unspecified)	< 50
Cc1nc(NC(=O)NCCOc2cccc(Cl)c2)sc1C#Cc1ccncc1	< 50
CCCn1cnc(CCNC(=O)Nc2nc(C)c(C#Cc3ccncc3)s2)c1	< 50
CCOC(=O)[C@H]1CCC[C@H]1NC(=O)Nc1nc(C)c(C#Cc2ccncc2)s1	50 to 250
Cc1nc(NC(=O)NCC(F)(F)F)sc1C#Cc1ccncc1	50 to 250
CCn1cnc(CCNC(=O)Nc2nc(C)c(C#Cc3ccncc3)s2)c1	< 50

Structure (SMILES)	Ki [nM]
Cc1nc(NC(=O)NCCOc2cccnc2)sc1C#Cc1ccnc(Cl)c1	50 to 250
Cc1nc(NC(=O)NCCc2cn(CC(F)F)cn2)sc1C#Cc1ccccc1Cl	50 to 250
Cc1nc(NC(=O)NCCc2cn(CC(F)F)cn2)sc1C#Cc1cccnc1	< 50
COc1ccc(C#Cc2sc(NC(=O)NC[C@H](C)OCC3CC3)nc2C)cn1	< 50
Cc1nc(NC(=O)NCCOCC2CC2)sc1C#Cc1ccc2nccnc2c1	< 50
CCc1ccc(CNC(=O)Nc2nc(C)c(C#Cc3ccncc3)s2)nc1	< 50
Cc1nc(NC(=O)COCc2ccccc2)sc1C#Cc1ccncc1	50 to 250
Cc1nc(NC(=O)NC[C@H](C)OCC2CC2)sc1C#Cc1ccc2ncccc2c1	< 50
Cc1nc(NC(=O)NCCCOCC2CC2)sc1C#Cc1ccncc1	50 to 250
CC(=O)Nc1nc(C)c(C#Cc2ccccc2C)s1	< 50
Cc1cccc(OCCNC(=O)Nc2nc(C)c(C#Cc3ccncc3)s2)c1	< 50
COc1cncc(C#Cc2sc(NC(C)=O)nc2C)c1	< 50
COc1cc(C#Cc2sc(NC(=O)NCCOCC3CC3)nc2C)cnc1OC	< 50
CC(=O)Nc1nc(C)c(C#Cc2cncc(C(F)(F)F)c2)s1	50 to 250
Cc1nc(NC(=O)NCCCOCC(F)(F)F)sc1C#Cc1ccncc1	50 to 250
COc1ccc(C#Cc2sc(NC(=O)NCCOCC3CC3)nc2C)cn1	50 to 250
CCOC(=O)CCCC(=O)Nc1nc(C)c(C#Cc2ccncc2)s1	50 to 250
Cc1nc(NC(=O)NCCC(=O)NC(C)C)sc1C#Cc1ccncc1	< 50
Cc1nc(NC(=O)NCCOCC2CC2)sc1C#Cc1ccnc(F)c1	< 50
CCn1c(C)nc(CCNC(=O)Nc2nc(C)c(C#Cc3ccncc3)s2)c1Cl	< 50
Cc1nc(NC(=O)NCCOCC2CC2)sc1C#Cc1cnc2ncccc2c1	< 50
Cc1nc(NC(=O)CCCc2cc[nH]c2)sc1C#Cc1ccncc1	50 to 250

Structure (SMILES)	Ki [nM]
Cc1nc(NC(=O)NCCOCC2CC2)sc1C#Cc1cnc2ccccc2c1	50 to 250
CCCOCCNC(=O)Nc1nc(C)c(C#Cc2ccncc2)s1	< 50
CC(=O)Nc1nc(C)c(C#Cc2ccncc2)s1	< 50
Cc1nc(NC(=O)CCCC(=O)NC(C)(C)C)sc1C#Cc1ccncc1	50 to 250
COc1cc(C#Cc2sc(NC(=O)NCCOc3ccncc3)nc2C)cnc1OC	< 50
Cc1cc(O)nc(CCNC(=O)Nc2nc(C)c(C#Cc3ccncc3)s2)n1	50 to 250
COc1ccccc1OCCNC(=O)Nc1nc(C)c(C#Cc2ccncc2)s1	< 50
COc1ccc(C#Cc2sc(NC(=O)NCCOCC3CC3)nc2C)nc1OC	< 50
CC(=O)Nc1nc(C)c(C#Cc2ccc(N)cc2)s1	50 to 250
Cc1nc(NC(=O)NCCn2cc(Cl)cn2)sc1C#Cc1ccncc1	< 50
Cc1nc(NC(=O)NCCc2cn(CC(F)F)cn2)sc1C#Cc1ccccc1	50 to 250
CCc1ccc(OCCNC(=O)Nc2nc(C)c(C#Cc3ccncc3)s2)cc1	50 to 250
CCn1cc(CCNC(=O)Nc2nc(C)c(C#Cc3ccncc3)s2)cn1	< 50
Cc1nc(NC(=O)NCCC2COCCO2)sc1C#Cc1ccncc1 (stereo unspecified)	< 50
COc1cc(C#Cc2sc(NC(=O)NCCn3cnc(C(F)(F)F)c3)nc2C)cnc1OC	< 50
CCCO[C@@H](C)CNC(=O)Nc1nc(C)c(C#Cc2cncc(OC)c2)s1	< 50
COc1ccc(OCCNC(=O)Nc2nc(C)c(C#Cc3ccncc3)s2)cc1	< 50
Cc1nc(NC(=O)NCC2CCCCO2)sc1C#Cc1ccncc1 (stereo unspecified)	< 50
Cc1nc(NC(=O)NCCC(=O)NCC(F)(F)F)sc1C#Cc1ccncc1	< 50
CC(=O)Nc1nc(C)c(C#Cc2cccnc2)s1	50 to 250

From the Kinase Knowledgebase extract (Sharma et al. 2016)
